BindingDB's records for doi:10.1021/acs.jmedchem.6b00330 (University of Bonn, 2016)

Key:
[1] = target: T1, Broad substrate specificity ATP-binding cassette transporter ABCG2 (Homo sapiens, UniProt Q9UNQ0); test: Inhibition of c-terminal GFP-tagged human ABCG2 expressed in MDCK2 cells assessed as enhancement of Hoechst 33342-induced cytotoxicity incubated for 72 hrs by MTT assay
T1 sequence (Q9UNQ0 whole entry): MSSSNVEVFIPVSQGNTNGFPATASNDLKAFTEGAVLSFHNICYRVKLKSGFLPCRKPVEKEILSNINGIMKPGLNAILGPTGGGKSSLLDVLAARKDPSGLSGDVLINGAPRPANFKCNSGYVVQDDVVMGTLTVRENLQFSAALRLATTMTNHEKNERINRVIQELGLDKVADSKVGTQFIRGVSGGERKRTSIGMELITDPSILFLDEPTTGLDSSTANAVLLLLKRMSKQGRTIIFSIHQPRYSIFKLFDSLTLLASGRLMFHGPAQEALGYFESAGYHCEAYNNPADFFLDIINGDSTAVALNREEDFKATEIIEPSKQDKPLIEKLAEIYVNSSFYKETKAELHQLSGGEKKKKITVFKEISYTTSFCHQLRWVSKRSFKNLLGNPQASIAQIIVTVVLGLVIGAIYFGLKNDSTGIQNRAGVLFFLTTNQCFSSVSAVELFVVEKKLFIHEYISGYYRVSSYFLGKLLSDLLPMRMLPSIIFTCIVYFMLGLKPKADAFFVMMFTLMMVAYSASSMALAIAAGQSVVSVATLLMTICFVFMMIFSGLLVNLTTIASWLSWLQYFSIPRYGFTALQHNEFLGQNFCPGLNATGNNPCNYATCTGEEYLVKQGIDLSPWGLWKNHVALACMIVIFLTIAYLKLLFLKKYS

[2] = target: T1, Broad substrate specificity ATP-binding cassette transporter ABCG2; test: Inhibition of c-terminal GFP-tagged human ABCG2 expressed in MDCK2 cells assessed as enhancement of SN-38-induced cytotoxicity incubated for 72 hrs by MTT assay
[3] = Inhibition of c-terminal GFP-tagged human ABCG2 expressed in MDCK2 cells assessed as enhancement of SN-38-induced cytotoxicity incubated for 72 hrs by MTT assay
[4] = Inhibition of c-terminal GFP-tagged human ABCG2 expressed in MDCK2 cells assessed as enhancement of Hoechst 33342-induced cytotoxicity incubated for 72 hrs by MTT assay

| Structure (SMILES) | EC50 [1] [µM] | EC50 [2] [µM] | EC50 [3] [µM] | EC50 [4] [µM] |
| --- | --- | --- | --- | --- |
| O=[N+]([O-])c1cc(Nc2nc(-c3ccccc3)nc3ccccc23)ccc1O | 0.13 | 0.12 |  |  |
| N#Cc1ccc(Nc2nc(-c3ccccc3)nc3ccccc23)cc1 |  |  | 0.041 | 0.053 |
